This is an account of results in ChEMBL document CHEMBL2321844, “Discovery of nosokophic acid, a predicted intermediate of moenomycins, from nosokomycin-producing Streptomyces sp. K04-0144” (2013).

What all share (type): functional
Experiment [1] deals with Staphylococcus aureus. The experiment is described as follows: Antimicrobial activity against methicillin-resistant Staphylococcus aureus after 20 hrs by liquid microdilution method. (In general: Broth dilution looks for growth in wells or tubes with falling amounts of substance.)
In experiment [2] the test system is Staphylococcus aureus. The experiment is described as follows: Potentiation of streptomycin antimicrobial activity against methicillin-resistant Staphylococcus aureus at 10 ug/ml after 20 hrs by liquid microdilution method.
Experiment [3] has as its system Staphylococcus aureus. The experiment is described as follows: Potentiation of tetracycline antimicrobial activity against methicillin-resistant Staphylococcus aureus at 10 ug/ml after 20 hrs by liquid microdilution method.

Converted amounts (≈) assume the structure as drawn. The source made the active and inactive calls. No cut-off for these calls is given here.

For the molecule `CC(C)=CCC/C(C)=C/CC/C(C)=C\COC(COP(=O)(O)O[C@H]1O[C@H](C(N)=O)[C@H](O)[C@H](O)[C@H]1O)C(=O)O` (some centres not stated), the outcome with Staphylococcus aureus [1] was inactive. For `C[C@@H](O)[C@H]1C(=O)N2C(C(=O)O)=C(SCCNC=N)C[C@H]12` [IMIPENEM ANHYDROUS], the minimal inhibitory concentration (MIC) (usually the least concentration at which growth counts as inhibited) in the experiment with Staphylococcus aureus [1] is 16 µg/mL (≈ 53.4 µM).

For the molecule `CN[C@@H]1[C@H](O[C@H]2[C@H](O[C@H]3[C@H](O)[C@@H](O)[C@H](N=C(N)N)[C@@H](O)[C@@H]3N=C(N)N)O[C@@H](C)[C@]2(O)C=O)O[C@@H](CO)[C@H](O)[C@H]1O` [STREPTOMYCIN], 2 µg/mL (≈ 3.44 µM) was the least that counted as inhibitory with Staphylococcus aureus [1] (MIC). Besides, the “fractional inhibitory concentration index (FICI)” value with Staphylococcus aureus [2] was determined as 1.

In turn, `CN(C)[C@@H]1C(O)=C(C(N)=O)C(=O)[C@@]2(O)C(O)=C3C(=O)c4c(O)cccc4[C@@](C)(O)[C@H]3C[C@@H]12` [TETRACYCLINE] had an MIC in the experiment with Staphylococcus aureus [1] of 32 µg/mL (≈ 72 µM). In the experiment with Staphylococcus aureus [3], the “fractional inhibitory concentration index (FICI)” value is listed as 1. The molecule `CN[C@H](CC(C)C)C(=O)N[C@H]1C(=O)N[C@@H](CC(N)=O)C(=O)N[C@H]2C(=O)N[C@H]3C(=O)N[C@H](C(=O)N[C@H](C(=O)O)c4cc(O)cc(O)c4-c4cc3ccc4O)[C@H](O)c3ccc(c(Cl)c3)Oc3cc2cc(c3O[C@@H]2O[C@H](CO)[C@@H](O)[C@H](O)[C@H]2O[C@H]2C[C@](C)(N)[C@H](O)[C@H](C)O2)Oc2ccc(cc2Cl)[C@H]1O` [VANCOMYCIN] registered an MIC against Staphylococcus aureus [1] of 0.5 µg/mL (≈ 0.345 µM).
